Reference: patent US10710978B2, “STK4 inhibitors for treatment of hematologic malignancies” (Dana-Farber Cancer Institute, Inc., priority 2015, dated 2020)

Columns and labels:
STK4 (MST1) = STK4 (MST1) (Homo sapiens (Human), UniProt Q13043); experiment: Z-lyte biochemical IC50 assay (Invitrogen); settings: ATP concentration matched the Km
Protocol: (§1) STK4 (MST1), STK3 (MST2); STK24 (MST3) and MST4 Assays
(§2) Biochemical IC50s were measured at Invitrogen using Z-lyte technology. Briefly, for STK4, the 2×STK4 (MST1)/Ser/Thr 07 mixture was prepared in 50 mM HEPES pH 7.5, 0.01% BRIJ35, 10 mM MgCl2, 1 mM EGTA. The final 10 μL Kinase Reaction consisted of 6.25-160 ng STK4 (MST1) and 2 μM Ser/Thr 07 in 50 mM HEPES pH 7.5, 0.01% BRIJ-35, 10 mM MgCl2, 1 mM EGTA. After the 1 hour Kinase Reaction incubation, 5 μL of a 1:100000 dilution of Development Reagent A was added. Compounds were screened in a 10 point titration with 3-fold serial dilutions starting at a concentration of 10 μM. The biochemical IC50s against other STK family members were measured similarly. The ATP concentration used matched the Km for each kinase.

STK24 (MST3) = STK24 (MST3) (Homo sapiens (Human), UniProt Q9Y6E0); experiment: Z-lyte biochemical IC50 assay (Invitrogen); settings: ATP concentration matched the Km
Protocol: as §1, §2

Sequence of STK24 (MST3) (Q9Y6E0 whole entry): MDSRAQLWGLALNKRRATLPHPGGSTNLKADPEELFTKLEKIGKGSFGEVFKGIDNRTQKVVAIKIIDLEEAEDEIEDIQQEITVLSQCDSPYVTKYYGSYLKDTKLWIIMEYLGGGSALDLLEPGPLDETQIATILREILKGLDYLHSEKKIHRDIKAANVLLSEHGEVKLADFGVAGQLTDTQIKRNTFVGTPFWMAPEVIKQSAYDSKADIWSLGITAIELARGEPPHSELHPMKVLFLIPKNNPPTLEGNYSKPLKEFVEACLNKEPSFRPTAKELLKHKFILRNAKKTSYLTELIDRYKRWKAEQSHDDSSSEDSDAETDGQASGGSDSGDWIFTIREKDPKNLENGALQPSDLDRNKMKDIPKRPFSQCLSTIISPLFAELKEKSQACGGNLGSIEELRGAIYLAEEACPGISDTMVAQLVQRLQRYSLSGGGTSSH
Sequence of STK4 (MST1) (Q13043 whole entry): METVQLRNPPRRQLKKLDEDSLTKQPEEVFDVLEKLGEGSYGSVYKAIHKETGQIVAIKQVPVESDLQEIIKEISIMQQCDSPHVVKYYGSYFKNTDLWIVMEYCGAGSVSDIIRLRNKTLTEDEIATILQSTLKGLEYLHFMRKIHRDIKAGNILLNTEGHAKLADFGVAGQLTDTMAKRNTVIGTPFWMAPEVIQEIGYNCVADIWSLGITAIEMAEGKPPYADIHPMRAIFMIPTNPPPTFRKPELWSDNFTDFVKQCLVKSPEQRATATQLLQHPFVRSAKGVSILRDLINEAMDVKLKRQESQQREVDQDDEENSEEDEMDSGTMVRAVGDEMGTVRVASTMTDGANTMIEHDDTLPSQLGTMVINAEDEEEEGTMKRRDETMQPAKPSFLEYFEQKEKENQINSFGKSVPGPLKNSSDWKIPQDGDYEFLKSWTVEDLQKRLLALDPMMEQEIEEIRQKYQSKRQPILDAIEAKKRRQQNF

IC50 (STK4 (MST1)): < 40 nM
IC50 (STK24 (MST3)): > 900 nM
Structure (SMILES): Nc1ncc(-c2cc([N+](=O)[O-])ccc2F)cc1-c1ccc2c(c1)CCNC2=O [Compound I-1, 6-(2-amino-5-(2-fluoro-5-nitrophenyl)pyridin-3-yl)-3,4-dihydroisoquinolin-1(2H)-one]
